Where two headings read alike, the source gives them in different places.
Legend:
NLuc = molecular target: T1, NLuc (Oplophorus gracilirostris, UniProt Q9GV45, A31E/A60N/A81I/F95D/I117V/K70R/L54V/L99Q/M102K/N193R/P142E/Q151K/Q38R/Q45L/V71I/Y165I); type: biochemical; conditions: - ATP
T1 construct: His tag (inferred from IMAC purification); made in house; host or cells: E. coli
Summary of the method: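 Test compounds added to 1 nM NLuc in PBS with 0.05% IGEPAL, ± ATP. Nano-Glo reagent added and incubated 10 min before luminescence read.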

P. pyralis FLuc = P. pyralis FLuc (Photinus pyralis, UniProt P08659); test: FLuc enzymatic luminescence assay, P. pyralis FLuc; type: biochemical; conditions: FLuc enzymatic assay; for IC50: read-out: IC50 or SDR50 (mM) FLuc E
P. pyralis FLuc, sequence (P08659 whole entry): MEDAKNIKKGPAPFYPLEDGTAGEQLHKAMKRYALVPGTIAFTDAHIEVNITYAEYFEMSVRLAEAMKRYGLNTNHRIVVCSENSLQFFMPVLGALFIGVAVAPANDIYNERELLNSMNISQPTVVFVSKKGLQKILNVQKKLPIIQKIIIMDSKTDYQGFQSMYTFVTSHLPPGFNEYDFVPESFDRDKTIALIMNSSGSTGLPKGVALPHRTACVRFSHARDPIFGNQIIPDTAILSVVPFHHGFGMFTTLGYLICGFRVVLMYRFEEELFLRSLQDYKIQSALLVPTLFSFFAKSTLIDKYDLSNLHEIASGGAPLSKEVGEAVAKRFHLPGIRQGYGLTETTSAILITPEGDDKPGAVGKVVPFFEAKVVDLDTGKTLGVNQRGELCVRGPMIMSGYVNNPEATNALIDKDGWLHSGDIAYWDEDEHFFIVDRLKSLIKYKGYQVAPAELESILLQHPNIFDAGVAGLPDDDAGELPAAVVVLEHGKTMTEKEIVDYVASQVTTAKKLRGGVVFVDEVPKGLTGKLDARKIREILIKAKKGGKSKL
Summary of the method: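 Runs with and without 10 µM ATP: compounds were pre-incubated with FLuc (1–10 nM, PBS pH 7.4) at ambient temperature, light-protected, for 30–60 min. Luminescence was imaged 5 min after adding 10 µM D-luciferin (final). Inhibition was scaled between DMSO neutral and no-enzyme controls.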

FLuc-C-HiBiT = molecular target: T2, FLuc-C-HiBiT (Photinus pyralis, UniProt P08659); test: biochemical; conditions: enzyme activity, 10 uM ATP; read-out: IC50 or SDR50 (mM) / FLuc E
T2 construct: firefly luciferase with C-terminal HiBiT tag, E. coli expressed
T2 sequence (P08659 whole entry, looked up): as the sequence (P08659 whole entry) above

[1] = molecular target: FLuc-C-NLuc (firefly luciferase) (Photinus pyralis, UniProt P08659, form not given/L550V); test: SDR assay, FLuc-C-NLuc; conditions: - ATP
FLuc-C-NLuc (firefly luciferase), sequence (P08659 2-550 L550V, form open): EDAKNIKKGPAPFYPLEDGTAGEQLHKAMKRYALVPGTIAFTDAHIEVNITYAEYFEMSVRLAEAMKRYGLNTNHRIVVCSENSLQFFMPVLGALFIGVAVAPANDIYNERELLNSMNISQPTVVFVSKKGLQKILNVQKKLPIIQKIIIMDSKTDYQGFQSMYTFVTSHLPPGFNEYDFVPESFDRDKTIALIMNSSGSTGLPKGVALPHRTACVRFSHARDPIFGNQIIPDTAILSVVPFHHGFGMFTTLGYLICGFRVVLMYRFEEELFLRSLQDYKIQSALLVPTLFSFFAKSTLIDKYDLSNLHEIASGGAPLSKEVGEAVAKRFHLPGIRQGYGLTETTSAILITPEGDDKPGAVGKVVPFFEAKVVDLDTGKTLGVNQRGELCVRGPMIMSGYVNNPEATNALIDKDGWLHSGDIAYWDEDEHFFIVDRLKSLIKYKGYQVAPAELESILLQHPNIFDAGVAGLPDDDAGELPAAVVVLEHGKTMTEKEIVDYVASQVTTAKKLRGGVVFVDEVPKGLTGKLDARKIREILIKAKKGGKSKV

[2] = molecular target: FLuc-C-HiBiT (firefly luciferase) (Photinus pyralis, UniProt P08659, form not given/L550V); test: SDR assay, FLuc-C-HiBiT; conditions: SDR max. response, clade S
FLuc-C-HiBiT (firefly luciferase), sequence (P08659 2-550 L550V, form open): as above

T1 sequence (Q9GV45 other isoform, or with tags, fused parts or gaps with the stated changes): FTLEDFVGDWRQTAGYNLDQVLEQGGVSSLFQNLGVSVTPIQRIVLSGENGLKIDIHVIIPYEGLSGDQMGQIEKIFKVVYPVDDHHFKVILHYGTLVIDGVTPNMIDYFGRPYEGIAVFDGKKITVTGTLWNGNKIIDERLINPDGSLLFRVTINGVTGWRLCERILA

SMILES	Efficacy (%) NLuc (- ATP) (NLuc)	Efficacy (%) FLuc E (P. pyralis FLuc; Clade S follow-up)	pIC50 or pSDR50 FLuc E (P. pyralis FLuc; Clade S follow-up)	IC50 (P. pyralis FLuc; Clade S follow-up)	IC50 (FLuc-C-HiBiT)	Efficacy (%) FLuc-C-NLuc SDR (-ATP) [1]	% Activity (max response, + ATP) [2]	% Activity (max response, - ATP) [2]	pIC50 or pSDR50 FLuc E (P. pyralis FLuc)	IC50 (P. pyralis FLuc)
O=C(NCc1ccncc1)C1CCN(C(=O)c2ncn3c2COC(c2ccc(F)cc2)C3)CC1 (stereo not shown) [NCGC00449833-01]	-20.01%	-87.47%	5.21	0.00623 mM	0.0111 mM	0.00%	157.03%	0.00%	–	–
O=C(Nc1ccc(Cl)cc1)C1CCN(C(=O)c2ncn3c2COC(c2ccccc2)C3)CC1 (stereo not shown) [NCGC00449917-01]	0.00%	-91.81%	5.81	0.00157 mM	0.00176 mM	0.00%	361.85%	0.00%	–	–
O=C(NCCc1ccccc1)C1CCN(C(=O)c2ncn3c2COC(c2ccccc2)C3)CC1 (stereo not shown) [NCGC00449794-01]	0.00%	-92.17%	–	–	0.00248 mM	0.00%	379.45%	0.00%	5.66	0.00221 mM
O=C(NCc1ccccc1F)C1CCN(C(=O)c2ncn3c2COC(c2ccccc2)C3)CC1 (stereo not shown) [NCGC00449783-01]	14.02%	-77.35%	–	–	0.00351 mM	0.00%	339.74%	0.00%	5.41	0.00393 mM
COc1ccccc1CNC(=O)C1CCN(C(=O)c2ncn3c2COC(c2ccccc2)C3)CC1 (stereo not shown) [NCGC00449776-01]	0.00%	-78.77%	–	–	0.00624 mM	0.00%	209.84%	0.00%	5.66	0.00221 mM
CC1CCC(NC(=O)C2CCN(C(=O)c3ncn4c3COC(c3ccccc3)C4)CC2)CC1 (stereo not shown) [NCGC00449768-01]	0.00%	-93.28%	–	–	0.00248 mM	0.00%	387.83%	0.00%	5.71	0.00197 mM
O=C(Nc1cccc(F)c1)C1CCN(C(=O)c2ncn3c2COC(c2ccccc2)C3)CC1 (stereo not shown) [NCGC00449914-01]	0.00%	-105.74%	6.21	0.00062 mM	0.000881 mM	0.00%	387.59%	0.00%	–	–
CCOc1cccc(CNC(=O)C2CCN(C(=O)c3ncn4c3COC(c3ccccc3)C4)CC2)c1 (stereo not shown) [NCGC00449780-01]	0.00%	-78.48%	–	–	0.00785 mM	0.00%	197.04%	0.00%	4.96	0.0111 mM
O=C(Nc1ccccc1)C1CCN(C(=O)c2ncn3c2COC(c2ccc(F)cc2)C3)CC1 (stereo not shown) [NCGC00449920-01]	0.00%	-13.92%	–	–	–	0.00%	29.50%	0.00%	–	–
O=C(NC1CCCCCC1)C1CCN(C(=O)c2ncn3c2COC(c2ccccc2)C3)CC1 (stereo not shown) [NCGC00449769-01]	0.00%	-80.74%	–	–	–	0.00%	369.53%	0.00%	5.26	0.00555 mM
Cc1ccc(CNC(=O)C2CCN(C(=O)c3ncn4c3COC(c3ccc(Cl)cc3)C4)CC2)cc1 (stereo not shown) [NCGC00449850-01]	0.00%	-21.67%	–	–	–	0.00%	22.50%	0.00%	–	–
Cc1cccc(CNC(=O)C2CCN(C(=O)c3ncn4c3COC(c3ccc(F)cc3)C4)CC2)c1 (stereo not shown) [NCGC00449836-01]	-9.94%	-28.36%	4.91	0.0124 mM	–	0.00%	48.27%	0.00%	–	–

Source: PMC12064818, “A general assay platform to study protein pharmacology using ligand-dependent structural dynamics” (Nature Communications, 2025)
